Assay results: ChEMBL document CHEMBL4334519, “Anti-inflammatory and α-Glucosidase Inhibitory Activities of Labdane and Norlabdane Diterpenoids from the Rhizomes of Amomum villosum” (J Nat Prod, 2019)
Activity calls are given as the source filed them. The calls are words filed in the database; no cut-off is given here.

Key:
RAW264.7 = assay: Antiinflammatory activity against mouse RAW264.7 cells assessed as inhibition of LPS-induced nitric oxide production measured after 24 hrs; assay type: functional, cell-based; settings: RAW264.7, 24 h
Saccharomyces cerevisiae [1] = assay: Inhibition of yeast alpha-glucosidase at 50 uM using p-nitrophenyl-alpha-D-glucopyranoside as substrate preincubated for 30 mins followed by substrate addition and measured after 30 mins by microplate reader analysis
[2] = Inhibition of yeast alpha-glucosidase using p-nitrophenyl-alpha-D-glucopyranoside as substrate preincubated for 30 mins followed by substrate addition and measured after 30 mins by microplate reader analysis; design: species or system Saccharomyces cerevisiae
Saccharomyces cerevisiae [3] = assay: Mixed-type inhibition of yeast alpha-glucosidase assessed as reduction in Vmax up to 20 uM using p-NPG as substrate measured up to 180 mins by Lineweaver-Burk plot analysis
Saccharomyces cerevisiae [4] = assay: Mixed-type inhibition of yeast alpha-glucosidase assessed as reduction in Km up to 20 uM using p-NPG as substrate measured up to 180 mins by Lineweaver-Burk plot analysis
[5] = Mixed-type inhibition of yeast alpha-glucosidase assessed as inhibition constant using p-NPG as substrate measured up to 180 mins by Lineweaver-Burk plot analysis; design: species or system Saccharomyces cerevisiae

SMILES	IC50 (RAW264.7) [µM]	inhibition (Saccharomyces cerevisiae [1]) [%]	IC50 [2] [µM]	inhibition (Saccharomyces cerevisiae [3])	inhibition (Saccharomyces cerevisiae [4])	Ki [5] [µM]
C=C1CC[C@H]2C(C)(C)CCC[C@]2(C)[C@H]1C/C=C(/C=O)CO	28.7	27.1	> 50			
CNC(=N)NCCC[C@H](N)C(=O)O [TILARGININE]	27.2					
C=C1CC[C@H]2C(C)(C)CCC[C@]2(C)[C@H]1CCC1=CC(O)OC1=O (some centres undefined) [CORONARIN C]	25.8	87.4	17.5			
C=C1CC[C@H]2C(C)(C)CCC[C@]2(C)[C@H]1/C=C/C(=O)O	23.7	33.2	> 50			
C=C1CC[C@H]2C(C)(C)CCC[C@]2(C)[C@H]1C/C=C1\CC(OC)OC1=O (some centres undefined)	24.6	87.8	15.8			
C=C1CC[C@H]2C(C)(C)CCC[C@]2(C)[C@H]1CCC1=CC(=O)OC1	18.8	89	14.8			
C=C1CC[C@H]2C(C)(C)CCC[C@]2(C)[C@H]1/C=C/C1=CC(=O)O[C@H]1O	2.4	95.7	10	Active	Active	9.5
C=C1CC[C@H]2C(C)(C)CCC[C@]2(C)[C@H]1C/C=C(\CC(=O)OCC)C(=O)O	> 50	38.7	> 50			
C=C1CC[C@H]2C(C)(C)CCC[C@]2(C)[C@H]1C/C=C1\CC(OCC)OC1=O (some centres undefined)	31.2	89.3	13.8			
OC[C@H]1NC[C@H](O)[C@@H](O)[C@@H]1O [DUVOGLUSTAT]		36.8	115			
CC1(C)CCC[C@]2(C)CC3=C(C[C@@H]12)C(=O)CC3	43.1	12.4	> 50			
C=C1CC[C@H]2C(C)(C)CCC[C@]2(C)[C@H]1C/C=C1\CC(=O)OC1=O	11	90.3	21.1			
O=c1c(-c2ccc(O)cc2)coc2cc(O)cc(O)c12 [GENISTEIN]		70	17.6			
C=C1CC[C@H]2C(C)(C)CCC[C@]2(C)[C@H]1C/C=C1\CCOC1=O	30.8	89.1	17.1			
C=C1CC[C@H]2C(C)(C)CCC[C@]2(C)[C@H]1C/C=C(/C=O)CCO	> 50	36.9	> 50			
